Results taken from patent EP2090164B1, “A rodenticide bait based on a synergetic association of anticoagulant active ingredients” (priority 2008, dated 2009).

Tests used:
cat = conditions: active ingredient; cited from earlier work
mouse = conditions: active ingredient; cited from earlier work
rat = conditions: active ingredient; cited from earlier work
[1] = cited from earlier work
[2] = WHO, 1995, cited from earlier work
infesting murine species = type: in vivo; conditions: same amount of anticoagulant
dog = conditions: active ingredient; cited from earlier work
murine population = conditions: in vivo; cited from earlier work
Rattus norvegicus = conditions: young prepubertal; females of Rattus norvegicus; cited from earlier work
Mus musculus = conditions: both genders and all ages of the Mus musculus; cited from earlier work
[3] = liver and kidney, two-phase course

Structure (SMILES)	a.p. LD50 (cat) [mg/kg]	a.p. LD50 (mouse) [mg/kg]	a.p. LD50 (rat) [mg/kg]	half-life in man [1] [days]	elimination from both liver and kidney, rather rapid initial phase [2, 3] [days]	elimination from both liver and kidney, second, much slower, phase [2, 3] [days]	half-life in the pancreas ([2]; pancreas) [days]	disinfesting action with respect to that of brodifacoum (infesting murine species)	a.p. LD50 (dog) [mg/kg]	eliminating of the treated murine population (murine population)	activity as chemosterilant (Rattus norvegicus)	activity as chemosterilant (Mus musculus)
O=c1oc2ccccc2c(O)c1C1CC(c2ccc(-c3ccccc3)cc2)Cc2ccccc21 (stereo not drawn) [DIPHENACOUM, diphenacoum]	>100	0.8	1.8	11.5	3	118 to 120	182	inferior	>50.0			
O=c1oc2ccccc2c(O)c1C1CC(c2ccc(-c3ccc(Br)cc3)cc2)Cc2ccccc21 (stereo not drawn) [BRODIFACOUM, brodifacoum]	25	0.4	0.4						0.25 to 3.6			
OCC(O)CCl (stereo not drawn) [α-chlorohydrin]										up to 85%	not active	not active
O=c1oc2ccccc2c(O)c1C(CC(O)c1ccc(-c2ccc(Br)cc2)cc1)c1ccccc1 (stereo not drawn) [BROMADIOLON, bromadiolon]	>25	1.75	1.125					inferior	>10.0			
